From patent US7482479B2, “Production of cis-pellitorin and use as a flavouring” (Symrise GmbH & Co., KG, priority 2002, dated 2009)

Key:
mouse = conditions: cited from earlier work
[1] = frequent use and overdosing; cited from earlier work
[2] = Tasting of the substance in 11% sugar solution by a group of testers (sensory profile); assay type: in vivo; conditions: for sensory profile (tasting): approx. 5 ml swallowed, 6 to 8 testers; for flavour impression in sensory testing: concentration not given
Protocol: The substance to be tasted is dissolved in ethanol and the ethanolic solution then diluted with an 11% sugar solution (final concentration: c). Approx. 5 ml of the sugar solution at a time are swallowed for the tasting. If the threshold value of the substance is known, a value just above the threshold value is chosen for the tasting. A group of 6 to 8 testers tasted the solutions.

[3] = capsaicin as reference; cited from earlier work

Compound | sensory profile (tasting) ([2]; c=10 ppm in 11% sugar solution) | flavour impression in sensory testing [2] | other results
COc1cc(CNC(=O)CCCC/C=C/C(C)C)ccc1O [capsaicin, N-(4-hydroxy-3-methoxybenzyl)-8-methyl-(6E)-nonenoic acid amide] | – | – | LD50 (mouse oral) (mouse): 47 mg; chronic toxicity [1]: chronic gastritis, kidney and liver damage
CCCCC/C=C\C=C\C(=O)NCC(C)C [cis-pellitorine, 2E,4Z-decadienoic acid-N-isobutylamide] | pronounced feeling of warmth, immediately pungent, typical alcohol pungency | pleasant, extremely pungent and warm flavour impression, which is reminiscent of ethanol and is relatively long lasting | –
COc1cc(CNC(=O)CCCCCCC(C)C)ccc1O [dihydrocapsaicin] | – | – | sensory profile (tasting) ([2]; c=100 ppb in 11% sugar solution): slightly delayed onset of effect in the pharynx, burning, aggressive, no heat development
O=C(/C=C/C=C/c1ccc2c(c1)OCO2)N1CCCCC1 [piperine, 1-piperoyl piperidine] | – | – | relative pungency in comparison to capsaicin [3]: approx. 1%
CCCCC/C=C/C=C/C(=O)NCC(C)C [trans-pellitorine, 2E,4E-decadienoic acid-N-isobutylamide] | saliva-stimulating, oily, fruity, slightly tingling, not pungent | primarily numbing | –
